# Results from patent publication US7291492B2, “Histone deacetylase 9” (The Institute of Cancer Research, priority 2001, dated 2007).
# System: GAL4 DBD-HDAC9 fusions
# Settings: 293T cells, GAL4-TK-Luc reporter; HDAC9, HDAC9ΔCD and HDAC9CD fusions
# Experimental: GAL4-Tk-Luc was transiently transfected into 293T cells together with 100 ng GAL4 DBD fusions. All Results were performed in duplicate […].
# It has been previously established that HDACs repress transcription when tethered to DNA as Gal4 fusion proteins. […] A GAL4^uasx5-TK-Luciferase reporter gene was transiently transfected into 293T cells together with the expression vectors for the indicated GAL4 fusion proteins.
substance,measurement,value
Trichostatin A,effect on the repressive effects of GAL4 DBD-HDAC9 fusions (reporter activity),partially relieved
